Experimental data taken from ChEMBL document CHEMBL4431323, “Synthesis and carbonic anhydrase inhibitory effects of new N-glycosylsulfonamides incorporating the phenol moiety” (Bioorg Med Chem Lett, 2016).

Experiments:
Carbonic anhydrase 12 = Carbonic anhydrase 12 (Homo sapiens, UniProt O43570); assay: Inhibition of human carbonic anhydrase 12 incubated for 15 mins prior to testing by stopped flow CO2 hydration assay
Carbonic anhydrase 9 = Carbonic anhydrase 9 (Homo sapiens, UniProt Q16790); assay: Inhibition of human carbonic anhydrase 9 incubated for 15 mins prior to testing by stopped flow CO2 hydration assay

Sequence of Carbonic anhydrase 12 (O43570 whole entry): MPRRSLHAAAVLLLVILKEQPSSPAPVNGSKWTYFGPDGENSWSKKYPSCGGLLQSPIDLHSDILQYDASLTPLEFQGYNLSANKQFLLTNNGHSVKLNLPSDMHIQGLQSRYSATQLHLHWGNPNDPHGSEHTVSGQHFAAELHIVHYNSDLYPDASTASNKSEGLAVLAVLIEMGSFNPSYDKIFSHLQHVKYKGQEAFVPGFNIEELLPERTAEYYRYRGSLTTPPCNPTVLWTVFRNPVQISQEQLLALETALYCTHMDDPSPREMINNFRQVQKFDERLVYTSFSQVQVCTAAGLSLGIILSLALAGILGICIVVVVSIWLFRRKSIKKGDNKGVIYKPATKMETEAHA

| Ki (Carbonic anhydrase 12) [µM] | Ki (Carbonic anhydrase 9) [µM] | Compound |
| --- | --- | --- |
| 0.176 | 0.235 | NS(=O)(=O)c1ccc(O)cc1 |
| > 50 | > 50 | O=S(=O)(N[C@H]1C=C[C@@H](O)[C@@H](CO)O1)c1ccc(O)cc1 |
| > 50 | > 50 | O=S(=O)(N[C@@H]1C=C[C@@H](O)[C@@H](CO)O1)c1ccc(O)cc1 |
| > 50 | > 50 | CC(=O)OC[C@H]1O[C@@H](NS(=O)(=O)c2ccc(O)cc2)C=C[C@H]1OC(C)=O |
| > 50 | > 50 | CC(=O)OC[C@H]1O[C@H](NS(=O)(=O)c2ccc(O)cc2)C=C[C@H]1OC(C)=O |
| > 50 | > 50 | O=S(=O)(NC1C=C[C@H](O)[C@@H](CO)O1)c1ccc(O)cc1 (stereo partly drawn) |
| > 50 | > 50 | CC(=O)OC[C@H]1OC(NS(=O)(=O)c2ccc(O)cc2)C(OC(C)=O)=C[C@@H]1OC(C)=O (stereo partly drawn) |
| > 50 | > 50 | O=C1C[C@H](O)[C@@H](CO)OC1NS(=O)(=O)c1ccc(O)cc1 (stereo partly drawn) |
| > 50 | > 50 | CC(=O)OC[C@H]1OC(NS(=O)(=O)c2ccc(O)cc2)C=C[C@@H]1OC(C)=O (relative stereo) |
